Measured values from patent US5219998A, “Yeast-derived epidermal growth factor” (priority 1991, dated 1993).

Assays:
A431 cells [1] = assay: A431 cellular respiration assay (Clark oxygen electrode); assay type: cell-based, human
Experimental: In preparing to carry out the titration the results of which are shown in FIG. 2, 10 cm dishes of A431 cells were washed twice and incubated in 5 ml of DME containing 0.1% bovine serum albumin for 1 hour in a CO2 incubator. The cells were collected by trypsinization and resuspended at 2-3×10^6 cells per ml in DME containing 0.1% bovine serum albumin. One ml of the cell suspension was transferred to a glass tube that as maintained at 37° C. with circulating water. The cells were allowed to equilibrate at temperature for 5 minutes, and a Clark oxygen electrode was inserted into the vessel. Potentiometric readings were continuously taken from the electrode using a YSI oxygraph that was attached to a recorder. […] Respiration was allowed to continue until an accurate rate could be observed on the recorder. The rates of respiration were converted to microliters of oxygen per hour per 2×10^6 cells.
Similarly, the yEGF fractions were titered by measuring their immediate effect on the consumption of oxygen by A431 cells.
The Experimental Over Control (EXP/CON) is the rate of respiration observed with yEGF(Fraction I) divided by the basal respiration rate for that sample.

anti-mEGF antibody = assay: Anti-murine EGF Elisa titration; assay type: binding, goat; conditions: Elisa absorbance; significant at <0.1; standard error 0.019
Experimental: One ml of a 100 mg/ml sample of a yeast extract yEGF(Fraction I) was diluted to 10% with trichloroacetic acid (Fisher Scientific no. A322-100) and allowed to stand for 30 minutes on ice. Precipitated material was collected on a centrifuge at 10,000×g for 10 minutes, and washed twice with 95% ethanol. The insoluble material was dissolved in 1 ml of water and dispersed in a 96 well plate by serial dilutions. Unbound antigen was removed after 3 hours at 37° C. and the plate was incubated with monospecific anti-mEGF antibody overnight at 4° C. Excess antibody was removed by washing the plates and a second antibody conjugated to alkaline phosphatase was added to each well. After 3 hours at 37° C., the excess second antibody was removed and the amount of alkaline phosphatase per well was determined. The Elisa test was dependent on the amount of y-EGF present. In preparation of the materials for the titration shown in the graph of FIG. 6, one hundred microliters of PBS was added to each well of a 96 well microtiter plate. Twenty five microliters of 10 mg/ml yEGF was added to the second well of each row. After mixing, 25 microliters was transferred to the third well in the row. The process was repeated until all the wells had dilutions of yEGF. The antigen was allowed to bind at 37° C. for 3 hours and the plate was washed 3 times with PBS containing 0.05% Tween-20(TPBS). […]

A431 cells [2] = assay: Relative stability at 55° C. measured by stimulation of A431 cellular respiration; assay type: cell-based, human; conditions: 100 ng of mEGF
Experimental: Referring to FIG. 4, a graph is shown summarizing the results obtained for yEGF(Fraction I) and mEGF.
In preparation for the titration the results of which are shown in FIG. 4, twenty microliter samples of either 100 ng of mEGF or 500 ug of yEGF(Fraction I) were incubated for various times at 55° C. The samples were removed and assayed for their ability to stimulate A431 cell respiration. The procedures for measuring respiration were the same as those which are summarized in relationship to the work leading to FIG. 2.

human EGF receptor = human EGF receptor (Homo sapiens, UniProt P00533); assay: Binding to EGF receptor of A431 cells (125I-mEGF competition); conditions: read-out: binding constant (KD), same experiment

Substance: mEGF: pure murine EGF (Collaborative Research no 40001)
- % Stimulation of A431 respiration (A431 cells [1]; 6.5 ug/ml a-mEGF): 1.5%
- % Stimulation of A431 respiration (A431 cells [1]; 10 ug/ml murine IGG): 91.8%
- % Stimulation of A431 respiration (A431 cells [1]; 0.1mM DTT): 44.8%
- effect of Dithiotrietol (DTT) on activity (A431 cells [1]; DTT): enhanced
- slope of regression Z=1.512 ug/ml EGF+1.03 (A431 cells [1]; Z = respiration ratio to control, concentration in ug/ml, intercept 1.03, 98% confidence): 1.512
- activity after boiling (A431 cells [1]; boiled): denatured
- % Stimulation of A431 respiration (A431 cells [1]; no pretreatment, 0.5 ug/ml mEGF or 1.0 mg/ml yEGF (Fraction I)): 17.8%
- % Stimulation of A431 respiration (A431 cells [1]; pretreatment 30 min 2 ug/ml ProK): 1.0%
- % Stimulation of A431 respiration (A431 cells [1]; pretreatment 30 min 2 ug/ml RNase A): 17.6%
- % Stimulation of A431 respiration (A431 cells [1]; pretreatment 30 min 2ug/ml trypsin): 1%
- % Stimulation of A431 respiration (A431 cells [1]; pretreatment 30 min 10 ug/ml DNasel): 18.2%
- % Stimulation of A431 respiration (A431 cells [1]; pretreatment Boiling): 2.1%
- regression coefficient: one ug equals 0.0518(ABS)--0.0223 (anti-mEGF antibody): 0.0518
- time to loss of ability to stimulate respiration (A431 cells [2]): ≤ 10 min
- Kd (human EGF receptor): 2.42 nM
